Experimental data as given in patent US7109193B2, “Tricyclic diazepines tocolytic oxytocin receptor antagonists” (Wyeth, priority 2001, dated 2006).

Row | melting point | Structure (SMILES)
1 | 201 to 204 °C | COc1cc(-c2ccccc2C)ccc1C(=O)N1Cc2ccc(C(=O)O)n2Cc2ccccc21
2 | 207 to 208 °C | COc1cc(-c2ccccc2F)c(Cl)cc1C(=O)N1Cc2ccc(C(=O)O)n2Cc2ccccc21
3 | 233 to 235 °C | Cc1cc(C(=O)N2Cc3ccc(C(=O)O)n3Cc3ccccc32)ccc1-c1ccccc1C(F)(F)F
